Data: PubChem BioAssay (NCI)
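How tested: cells in 96-well plates exposed to compound for 48 hours at five concentrations. GI50 marks 50% less growth. TGI denotes the concentration required for complete inhibition of growth.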

What was measured:
Experiment in all cases: NCI tumour cell line growth inhibition, 48 h
DLD-1 colon = test system: DLD-1 colon
SF-295 CNS = test system: SF-295 CNS
MALME-3M melanoma = test system: MALME-3M melanoma
UO-31 renal = test system: UO-31 renal
RXF-631 renal = test system: RXF-631 renal
LXFL 529 NSCLC = test system: LXFL 529 NSCLC
SR leukemia = test system: SR leukemia
M19-MEL melanoma = test system: M19-MEL melanoma
OVCAR-5 ovarian = test system: OVCAR-5 ovarian
EKVX NSCLC = test system: EKVX NSCLC
M14 melanoma = test system: M14 melanoma
HT29 colon = test system: HT29 colon
SNB-78 CNS = test system: SNB-78 CNS
SNB-19 CNS = test system: SNB-19 CNS
LOX IMVI melanoma = test system: LOX IMVI melanoma
COLO 205 colon = test system: COLO 205 colon
KM12 colon = test system: KM12 colon
RXF 393 renal = test system: RXF 393 renal
HCC-2998 colon = test system: HCC-2998 colon
UACC-257 melanoma = test system: UACC-257 melanoma
A549 NSCLC = test system: A549 NSCLC
HL-60(TB) leukemia = test system: HL-60(TB) leukemia
SW-620 colon = test system: SW-620 colon
OVCAR-3 ovarian = test system: OVCAR-3 ovarian
DMS 273 small cell lung = test system: DMS 273 small cell lung
HCT-116 colon = test system: HCT-116 colon
SK-OV-3 ovarian = test system: SK-OV-3 ovarian
IGROV1 ovarian = test system: IGROV1 ovarian
RPMI-8226 leukemia = test system: RPMI-8226 leukemia
CCRF-CEM leukemia = test system: CCRF-CEM leukemia
UACC-62 melanoma = test system: UACC-62 melanoma
SF-539 CNS = test system: SF-539 CNS
XF 498 CNS = test system: XF 498 CNS
DMS 114 small cell lung = test system: DMS 114 small cell lung
SK-MEL-28 melanoma = test system: SK-MEL-28 melanoma
NCI-H23 lung = test system: NCI-H23 lung
MOLT-4 leukemia = test system: MOLT-4 leukemia
HOP-62 NSCLC = test system: HOP-62 NSCLC
KM20L2 colon = test system: KM20L2 colon
SF-268 CNS = test system: SF-268 CNS
OVCAR-8 ovarian = test system: OVCAR-8 ovarian
K-562 leukemia = test system: K-562 leukemia
ACHN renal = test system: ACHN renal
786-0 renal = test system: 786-0 renal
TK-10 renal = test system: TK-10 renal
OVCAR-4 ovarian = test system: OVCAR-4 ovarian
NCI-H460 lung = test system: NCI-H460 lung
HOP-18 NSCLC = test system: HOP-18 NSCLC
SN12C renal = test system: SN12C renal
HOP-92 NSCLC = test system: HOP-92 NSCLC
NCI-H226 lung = test system: NCI-H226 lung
U251 CNS = test system: U251 CNS
CAKI-1 renal = test system: CAKI-1 renal
SK-MEL-5 melanoma = test system: SK-MEL-5 melanoma
HCT-15 colon = test system: HCT-15 colon
A498 renal = test system: A498 renal
NCI-H522 lung = test system: NCI-H522 lung
P388 leukemia = test system: P388 leukemia
SNB-75 CNS = test system: SNB-75 CNS
SN12K1 renal = test system: SN12K1 renal
NCI/ADR-RES ovarian = test system: NCI/ADR-RES ovarian
MCF7 breast = test system: MCF7 breast
P388/ADR leukemia = test system: P388/ADR leukemia
SK-MEL-2 melanoma = test system: SK-MEL-2 melanoma

SMILES: CC[O-].CC[O-].[O-]c1ccccc1C=Nc1ccccc1.[O-]c1ccccc1C=Nc1ccccc1.[Ti+4]
- GI50 (DLD-1 colon): > 100 µM
- TGI (DLD-1 colon): > 100 µM
- GI50 (SF-295 CNS): > 100 µM
- TGI (SF-295 CNS): > 100 µM
- GI50 (MALME-3M melanoma): > 100 µM
- TGI (MALME-3M melanoma): > 100 µM
- GI50 (UO-31 renal): > 100 µM
- TGI (UO-31 renal): > 100 µM
- GI50 (RXF-631 renal): > 100 µM
- TGI (RXF-631 renal): > 100 µM
- GI50 (LXFL 529 NSCLC): 2.94 µM
- TGI (LXFL 529 NSCLC): > 100 µM
- GI50 (SR leukemia): 26.9 µM
- TGI (SR leukemia): > 100 µM
- GI50 (M19-MEL melanoma): > 100 µM
- TGI (M19-MEL melanoma): > 100 µM
- GI50 (OVCAR-5 ovarian): > 100 µM
- TGI (OVCAR-5 ovarian): > 100 µM
- GI50 (EKVX NSCLC): > 100 µM
- TGI (EKVX NSCLC): > 100 µM
- GI50 (M14 melanoma): > 100 µM
- TGI (M14 melanoma): > 100 µM
- GI50 (HT29 colon): > 100 µM
- TGI (HT29 colon): > 100 µM
- GI50 (SNB-78 CNS): > 100 µM
- TGI (SNB-78 CNS): > 100 µM
- GI50 (SNB-19 CNS): > 100 µM
- TGI (SNB-19 CNS): > 100 µM
- GI50 (LOX IMVI melanoma): 1.92 µM
- TGI (LOX IMVI melanoma): > 100 µM
- GI50 (COLO 205 colon): 96.8 µM
- TGI (COLO 205 colon): > 100 µM
- GI50 (KM12 colon): 26.7 µM
- TGI (KM12 colon): > 100 µM
- GI50 (RXF 393 renal): > 100 µM
- TGI (RXF 393 renal): > 100 µM
- GI50 (HCC-2998 colon): 82.9 µM
- TGI (HCC-2998 colon): > 100 µM
- GI50 (UACC-257 melanoma): > 100 µM
- TGI (UACC-257 melanoma): > 100 µM
- GI50 (A549 NSCLC): > 100 µM
- TGI (A549 NSCLC): > 100 µM
- GI50 (HL-60(TB) leukemia): > 100 µM
- TGI (HL-60(TB) leukemia): > 100 µM
- GI50 (SW-620 colon): 9.24 µM
- TGI (SW-620 colon): > 100 µM
- GI50 (OVCAR-3 ovarian): > 100 µM
- TGI (OVCAR-3 ovarian): > 100 µM
- GI50 (DMS 273 small cell lung): 21 µM
- TGI (DMS 273 small cell lung): > 100 µM
- GI50 (HCT-116 colon): 31.8 µM
- TGI (HCT-116 colon): > 100 µM
- GI50 (SK-OV-3 ovarian): > 100 µM
- TGI (SK-OV-3 ovarian): > 100 µM
- GI50 (IGROV1 ovarian): > 100 µM
- TGI (IGROV1 ovarian): > 100 µM
- GI50 (RPMI-8226 leukemia): > 100 µM
- TGI (RPMI-8226 leukemia): > 100 µM
- GI50 (CCRF-CEM leukemia): 10.9 µM
- TGI (CCRF-CEM leukemia): > 100 µM
- GI50 (UACC-62 melanoma): > 100 µM
- TGI (UACC-62 melanoma): > 100 µM
- GI50 (SF-539 CNS): > 100 µM
- TGI (SF-539 CNS): > 100 µM
- GI50 (XF 498 CNS): > 100 µM
- TGI (XF 498 CNS): > 100 µM
- GI50 (DMS 114 small cell lung): 75.2 µM
- TGI (DMS 114 small cell lung): > 100 µM
- GI50 (SK-MEL-28 melanoma): > 100 µM
- TGI (SK-MEL-28 melanoma): > 100 µM
- GI50 (NCI-H23 lung): > 100 µM
- TGI (NCI-H23 lung): > 100 µM
- GI50 (MOLT-4 leukemia): 28.4 µM
- TGI (MOLT-4 leukemia): > 100 µM
- GI50 (HOP-62 NSCLC): > 100 µM
- TGI (HOP-62 NSCLC): > 100 µM
- GI50 (KM20L2 colon): 23.7 µM
- TGI (KM20L2 colon): > 100 µM
- GI50 (SF-268 CNS): > 100 µM
- TGI (SF-268 CNS): > 100 µM
- GI50 (OVCAR-8 ovarian): 97.3 µM
- TGI (OVCAR-8 ovarian): > 100 µM
- GI50 (K-562 leukemia): 0.789 µM
- TGI (K-562 leukemia): > 100 µM
- GI50 (ACHN renal): 23.8 µM
- TGI (ACHN renal): > 100 µM
- GI50 (786-0 renal): > 100 µM
- TGI (786-0 renal): > 100 µM
- GI50 (TK-10 renal): > 100 µM
- TGI (TK-10 renal): > 100 µM
- GI50 (OVCAR-4 ovarian): > 100 µM
- TGI (OVCAR-4 ovarian): > 100 µM
- GI50 (NCI-H460 lung): > 100 µM
- TGI (NCI-H460 lung): > 100 µM
- GI50 (HOP-18 NSCLC): > 100 µM
- TGI (HOP-18 NSCLC): > 100 µM
- GI50 (SN12C renal): > 100 µM
- TGI (SN12C renal): > 100 µM
- GI50 (HOP-92 NSCLC): > 100 µM
- TGI (HOP-92 NSCLC): > 100 µM
- GI50 (NCI-H226 lung): > 100 µM
- TGI (NCI-H226 lung): > 100 µM
- GI50 (U251 CNS): > 100 µM
- TGI (U251 CNS): > 100 µM
- GI50 (CAKI-1 renal): 85.1 µM
- TGI (CAKI-1 renal): > 100 µM
- GI50 (SK-MEL-5 melanoma): 45.5 µM
- TGI (SK-MEL-5 melanoma): > 100 µM

SMILES: CC1(C)S[C@@H]2[C@H](NC(=O)CCC[C@@H](N)C(=O)O)C(=O)N2[C@H]1C(=O)O
- TGI (DLD-1 colon): > 50 µM
- TGI (HCT-15 colon): > 50 µM
- TGI (SF-295 CNS): > 50 µM
- TGI (A498 renal): > 50 µM
- TGI (MALME-3M melanoma): > 50 µM
- TGI (UO-31 renal): > 50 µM
- TGI (NCI-H522 lung): > 50 µM
- TGI (P388 leukemia): > 50 µM
- TGI (M19-MEL melanoma): > 50 µM
- TGI (OVCAR-5 ovarian): > 28.1 µM
- TGI (EKVX NSCLC): > 50 µM
- TGI (HT29 colon): > 50 µM
- TGI (SNB-78 CNS): > 50 µM
- TGI (SNB-19 CNS): > 50 µM
- TGI (SNB-75 CNS): > 50 µM
- TGI (LOX IMVI melanoma): > 50 µM
- TGI (COLO 205 colon): > 50 µM
- TGI (KM12 colon): > 50 µM
- TGI (RXF 393 renal): > 50 µM
- TGI (HCC-2998 colon): > 50 µM
- TGI (UACC-257 melanoma): > 50 µM
- TGI (A549 NSCLC): > 50 µM
- TGI (HL-60(TB) leukemia): > 50 µM
- TGI (SW-620 colon): > 31.6 µM
- TGI (OVCAR-3 ovarian): > 50 µM
- TGI (DMS 273 small cell lung): > 50 µM
- TGI (HCT-116 colon): > 50 µM
- TGI (SK-OV-3 ovarian): 49.9 µM
- TGI (IGROV1 ovarian): > 50 µM
- TGI (RPMI-8226 leukemia): > 50 µM
- TGI (CCRF-CEM leukemia): > 50 µM
- TGI (SN12K1 renal): > 50 µM
- TGI (NCI/ADR-RES ovarian): > 31.6 µM
- TGI (UACC-62 melanoma): > 50 µM
- TGI (SF-539 CNS): > 50 µM
- TGI (XF 498 CNS): > 42 µM
- TGI (SK-MEL-28 melanoma): > 50 µM
- TGI (NCI-H23 lung): > 50 µM
- TGI (MOLT-4 leukemia): > 50 µM
- TGI (HOP-62 NSCLC): > 50 µM
- TGI (KM20L2 colon): > 28 µM
- TGI (SF-268 CNS): > 50 µM
- TGI (OVCAR-8 ovarian): > 19.9 µM
- TGI (K-562 leukemia): > 50 µM
- TGI (OVCAR-4 ovarian): > 50 µM
- TGI (NCI-H460 lung): > 50 µM
- TGI (HOP-18 NSCLC): > 50 µM
- TGI (SN12C renal): > 50 µM
- TGI (HOP-92 NSCLC): > 50 µM
- TGI (MCF7 breast): > 50 µM
- TGI (NCI-H226 lung): > 50 µM
- TGI (U251 CNS): > 28.4 µM
- TGI (P388/ADR leukemia): > 50 µM
- TGI (CAKI-1 renal): > 50 µM
- TGI (SK-MEL-2 melanoma): > 50 µM
- TGI (SK-MEL-5 melanoma): > 21.6 µM
